ChEMBL document CHEMBL3885881, “DrugMatrix”

Species on record: Rattus norvegicus
Test: DrugMatrix - Regimen: Daily Repeat
Format: toxicity, organism-based, Sprague-Dawley
Design: regimen Daily Repeat, gender Male, age 6-8 weeks
Conditions: in vivo, po, 1200 mg/kg, route oral GAVAGE, dose level High, vehicle 100 % WATER; for ABSOLUTE BASOPHIL / ABSOLUTE EOSINOPHIL / ABSOLUTE LYMPHOCYTE / ABSOLUTE MONOCYTE / ABSOLUTE SEGMENTED NEUTROPHIL / BASOPHIL / EOSINOPHIL / ERYTHROCYTE COUNT / HEMATOCRIT / HEMOGLOBIN / LEUKOCYTE COUNT / LYMPHOCYTE / MEAN CORPUSCULAR HEMOGLOBIN / MEAN CORPUSCULAR HEMOGLOBIN CONCENTRATION / MEAN CORPUSCULAR VOLUME / MONOCYTE / NEUTROPHIL / NUCLEATED RED BLOOD CELLS / PLATELET COUNT: tissue Blood; for ALANINE AMINOTRANSFERASE / ALBUMIN / ALKALINE PHOSPHATASE / ASPARTATE AMINOTRANSFERASE / BLOOD UREA NITROGEN / CARBON DIOXIDE / CHLORIDE / CHOLESTEROL / CREATINE PHOSPHOKINASE / CREATININE / GLUCOSE / LACTATE DEHYDROGENASE / LIPASE / PHOSPHORUS / POTASSIUM / SODIUM / TOTAL BILIRUBIN / TOTAL PROTEIN / URIC ACID: tissue Plasma

CCC1(C)CC(=O)NC1=O (stereo unspecified) [ETHOSUXIMIDE]
ABSOLUTE BASOPHIL (72 h, time 3 day): 0 CELLS/uL
ABSOLUTE EOSINOPHIL (72 h, time 3 day): 0 CELLS/uL
ABSOLUTE LYMPHOCYTE (72 h, time 3 day): 11632.67 CELLS/uL
ABSOLUTE MONOCYTE (72 h, time 3 day): 44.67 CELLS/uL
ABSOLUTE SEGMENTED NEUTROPHIL (72 h, time 3 day): 722.67 CELLS/uL
BASOPHIL (72 h, time 3 day): 0%
EOSINOPHIL (72 h, time 3 day): 0%
ERYTHROCYTE COUNT (72 h, time 3 day): 5.96 x10E6/uL
HEMATOCRIT (72 h, time 3 day): 38.63%
HEMOGLOBIN (72 h, time 3 day): 15.43 G/DL
LEUKOCYTE COUNT (72 h, time 3 day): 12.4 x10E3/uL
LYMPHOCYTE (72 h, time 3 day): 94%
MEAN CORPUSCULAR HEMOGLOBIN (72 h, time 3 day): 26 pg
MEAN CORPUSCULAR HEMOGLOBIN CONCENTRATION (72 h, time 3 day): 40 G/DL
MEAN CORPUSCULAR VOLUME (72 h, time 3 day): 65 fL
MONOCYTE (72 h, time 3 day): 0.33%
NEUTROPHIL (72 h, time 3 day): 5.67%
NUCLEATED RED BLOOD CELLS (72 h, time 3 day): 0 /100WBC
PLATELET COUNT (72 h, time 3 day): 1151 x10E3/uL
ALANINE AMINOTRANSFERASE (72 h, time 3 day): 70.67 u/L
ALBUMIN (72 h, time 3 day): 4.4 G/DL
ALKALINE PHOSPHATASE (72 h, time 3 day): 269.67 u/L
ASPARTATE AMINOTRANSFERASE (72 h, time 3 day): 95 u/L
BLOOD UREA NITROGEN (72 h, time 3 day): 16.33 mg/dL
CARBON DIOXIDE (72 h, time 3 day): 28.67 mmol/L
CHLORIDE (72 h, time 3 day): 97 MEQ/L
CHOLESTEROL (72 h, time 3 day): 100.67 mg/dL
CREATINE PHOSPHOKINASE (72 h, time 3 day): 183.67 u/L
CREATININE (72 h, time 3 day): 0.14 mg/dL
GLUCOSE (72 h, time 3 day): 133 mg/dL
LACTATE DEHYDROGENASE (72 h, time 3 day): 123 u/L
LIPASE (72 h, time 3 day): 10.67 u/L
PHOSPHORUS (72 h, time 3 day): 12.53 mg/dL
POTASSIUM (72 h, time 3 day): 7.49 MEQ/L
SODIUM (72 h, time 3 day): 140.33 MEQ/L
TOTAL BILIRUBIN (72 h, time 3 day): 0.2 mg/dL
TOTAL PROTEIN (72 h, time 3 day): 5.97 G/DL
URIC ACID (72 h, time 3 day): 1.9 mg/dL
ABSOLUTE BASOPHIL (120 h, time 5 day): 0 CELLS/uL
ABSOLUTE EOSINOPHIL (120 h, time 5 day): 57.67 CELLS/uL
ABSOLUTE LYMPHOCYTE (120 h, time 5 day): 11720.67 CELLS/uL
ABSOLUTE MONOCYTE (120 h, time 5 day): 238.33 CELLS/uL
ABSOLUTE SEGMENTED NEUTROPHIL (120 h, time 5 day): 2116.67 CELLS/uL
BASOPHIL (120 h, time 5 day): 0%
EOSINOPHIL (120 h, time 5 day): 0.33%
ERYTHROCYTE COUNT (120 h, time 5 day): 6.03 x10E6/uL
HEMATOCRIT (120 h, time 5 day): 37.47%
HEMOGLOBIN (120 h, time 5 day): 14.97 G/DL
LEUKOCYTE COUNT (120 h, time 5 day): 14.13 x10E3/uL
LYMPHOCYTE (120 h, time 5 day): 83%
MEAN CORPUSCULAR HEMOGLOBIN (120 h, time 5 day): 24.8 pg
MEAN CORPUSCULAR HEMOGLOBIN CONCENTRATION (120 h, time 5 day): 39.97 G/DL
MEAN CORPUSCULAR VOLUME (120 h, time 5 day): 62.07 fL
MONOCYTE (120 h, time 5 day): 1.67%
NEUTROPHIL (120 h, time 5 day): 15%
NUCLEATED RED BLOOD CELLS (120 h, time 5 day): 0 /100WBC
PLATELET COUNT (120 h, time 5 day): 1343 x10E3/uL
ALANINE AMINOTRANSFERASE (120 h, time 5 day): 98.67 u/L
ALBUMIN (120 h, time 5 day): 4.7 G/DL
ALKALINE PHOSPHATASE (120 h, time 5 day): 209.33 u/L
ASPARTATE AMINOTRANSFERASE (120 h, time 5 day): 133.67 u/L
BLOOD UREA NITROGEN (120 h, time 5 day): 15 mg/dL
CARBON DIOXIDE (120 h, time 5 day): 25.67 mmol/L
CHLORIDE (120 h, time 5 day): 96.67 MEQ/L
CHOLESTEROL (120 h, time 5 day): 108 mg/dL
CREATINE PHOSPHOKINASE (120 h, time 5 day): 425.33 u/L
CREATININE (120 h, time 5 day): 0.16 mg/dL
GLUCOSE (120 h, time 5 day): 121 mg/dL
LACTATE DEHYDROGENASE (120 h, time 5 day): 480.67 u/L
LIPASE (120 h, time 5 day): 10.67 u/L
PHOSPHORUS (120 h, time 5 day): 11.4 mg/dL
POTASSIUM (120 h, time 5 day): 6.59 MEQ/L
SODIUM (120 h, time 5 day): 141.93 MEQ/L
TOTAL BILIRUBIN (120 h, time 5 day): 0.13 mg/dL
TOTAL PROTEIN (120 h, time 5 day): 6.37 G/DL
URIC ACID (120 h, time 5 day): 1.63 mg/dL
